In patent US9527889B2, “RFamide-related peptides and methods thereof” (THE REGENTS OF THE UNIVERSITY OF MICHIGAN, priority 2010, dated 2016):
pEC50: −log10 of the molar value. Where two headings read alike, the source gives them in different places. Non-standard residues stand in square brackets, D forms with d. Residues, ends and D or L forms follow the SMILES beside them. No end group written: not given here. *: point of attachment. Bpa = N[C@@H](Cc1ccc(C(=O)c2ccccc2)cc1)C(=O)O; Myristoyl = CCCCCCCCCCCCCC(=O)*

What was measured:
D. melanogaster heart = type: in vivo, Drosophila melanogaster; conditions: for effect on fly heart rate / contractility (in words): DMS analogs; for heart rate, % of the basal contraction rate: within 1 minute; for pEC50: in vivo, maximal effect 1 minute after microinjection, read-out: best-fit EC50, decrease of heart rate
Protocol: D. melanogaster Oregon R wild-type strain flies were maintained on cornmeal molasses media at 24° C. under a 12 hour light/dark cycle. The animals selected for analysis were larvae, prepupae, or adults; both females and males were analyzed and no difference in response was observed. An animal was positioned onto double-stick tape adhered to a microscope stage and heart rate was monitored for 2 minutes before and 10 minutes after saline (control) or peptide was delivered as previously described (Nichols, R. Et al. (1999), Zornik, E. et al. (1999)). A drawn-out micropipette was used to deliver saline or peptide (40 ηl) into the hemolymph (blood) at a site anterior to the brain to avoid tissue damage to the central nervous system and dorsal vessel (aorta and heart). Each animal received only one microinjection of saline or peptide. In some cases, recordings were extended up to 1 hour to establish the return to baseline. Data were averaged from several animals (n≧10) and reported relative to the basal heart rate.
The influence of DMS (Dromyosuppressin peptide; […]amide—SEQ ID NO: 1) on in vivo heart rate in D. melanogaster was compared to physiological saline to evaluate dose-dependent effects of myosuppressin in cardiac function in a model amenable to molecular genetics. […] The dose-dependent effects of dromyosuppressin reported were evaluated in pupae because the animals are immobile and, thus, this developmental stage is the easiest to observe and record heart contractions. The effects of DMS were measured over a range of ten-fold concentrations from 10^−6 M to 10^−11 M and compared to the influence of physiological saline (mean±SEM; 91±3% basal contraction rate at 1 minute; n=18). […] Significant reductions in heart rate were detected in response to DMS concentrations of 10^−9 M and higher, and the peak responses were observed within 1 minute of microinjection of the peptide. The DMS-induced effects typically were observed over 2-3 minutes, and were reversible, returning to approximately basal contraction rate levels in about 5 minutes in response to 10^−8 M and 10^−9 M. At the highest concentrations tested, 10^−6 M and 10^−7 M, DMS decreased heart rate to 25±11% (n=14) and 25±7% (n=16), respectively, within 1 minute. The DMS-induced effects were sustained for 3-5 minutes before they returned to approximately basal contraction rate levels within 30 minutes.

[1] = test system: isolated adult rat cardiac myocytes; type: cell-based; conditions: for ability to bind and affect myocyte contractile function: 10^−8M, individually administered; for % Change baseline SL / % Change dep v (shortening rate) / % Change peak h (shortening amplitude) / % Change ret v (re-lengthening rate): 10^−8 M; for character relative to hRFRP-1 on myocyte contractile function (agonist, antagonist, reverse agonist; in words): peptides at 10^−8M or 10^−7M, peak shortening, departure and return velocity
Description: Adult rat and rabbit ventricular cardiac myocytes were isolated as previously described (Westfall, M. V. Et al. (1997), Westfall, M. V. and Borton, A. R. (2003)). Hearts from Sprague-Dawley rats and New Zealand white rabbits were perfused and enzymatically digested to isolate myocytes; the protocol was approved by The University of Michigan University Committee on Use and Care of Animals (UCUCA) in accordance with university and federal regulatory guidelines. Aliquots of isolated ventricular myocytes were plated on laminin-coated glass coverslips in serum-containing Dulbecco's Modified Eagle Media (Invitrogen, CA, US) supplemented with 5% fetal bovine serum, and 50 U/ml penicillin and 50 μg/ml streptomycin (pen/strep; Sigma-Aldrich, MO, US). Two hours later, media was replaced with serum-free M199 (Invitrogen) supplemented with 1.8 mM Ca^2+, 10 mM HEPES, 10 mM glutathione, and pen/strep. Rat myocytes were transferred to a stimulation chamber and electrically paced the day after isolation (Zornik, E. Et al. (1999), Westfall, M. V. Et al. (1997)). Media was changed daily for all myocyte preparations.
Sarcomere shortening was detected using a video-based detection system (IonOptix, MA, USA) as described earlier (Westfall, M. V. and Borton, A. R. (2003)). Rat myocytes were paced at 0.2 Hz and rabbit myocytes were paced at 0.5 Hz or 1.0 Hz for these studies. Recordings were made prior to application of each peptide concentration, the protein kinase C (PKC) inhibitor bisindolylmaleimide-1, (bis-1; CalBiochem/EMD, NJ, US), or media only (control, C) and at 1, 3, 5, 10 and 15 minutes after application of peptide, bis-1, or media. Signal averaged data were analyzed to determine resting sarcomere length, shortening amplitude (peak shortening), shortening rate (departure velocity), and re-lengthening rate (return velocity), as previously described (Westfall, M. V. Et al. (1997), Westfall, M. V. and Borton, A. R. (2003)), in 7-20 myocytes from 3-4 rats for each peptide concentration, bis-1, and media.

Protophormia terraenovae = experiment: Cardiac arrest in intact blowfly (electrocardiograms); type: in vivo
Protocol: In order to determine the effect of DMS on cardiac arrest in a larger invertebrate various concentrations of DMS were applied to intact Protophormia terraenovae, a blowfly, and electrocardiograms were recorded continuously [Angioy et al. 2007]. […] Signal resumed in animals; the recovery time shortened at lower DMS concentrations.

VFLRFamide (VFLRF-NH2)
effect on fly heart rate / contractility (in words) (D. melanogaster heart): capable of not only binding, but exerting an effect on cardiac contractility

FLRFamide (FLRF-NH2)
effect on fly heart rate / contractility (in words) (D. melanogaster heart): DMS antagonist

PQRFamide (PQRF-NH2)
ability to bind and affect myocyte contractile function [1]: in a manner similar to the parent peptide hRFRP-1

PKI-(Myr-14-22)-amide (Myristoyl-SGRTGRRNA-NH2; SMILES CCCCCCCCCCCCCC(=O)N[C@@H](CO)C(=O)NCC(=O)N[C@@H](CCCNC(=N)N)C(=O)N[C@H](C(=O)NCC(=O)N[C@@H](CCCNC(=N)N)C(=O)N[C@@H](CCCNC(=N)N)C(=O)N[C@@H](CC(N)=O)C(=O)N[C@@H](C)C(N)=O)[C@@H](C)O; UniProt P61925 14-22, looked up, fragment) [reference compound]
effect of inhibitor on the activity of hRFRP-1 ([1]; isolated ventricular cardiac myocytes): modifies the activity of hRFRP-1

KGGFSFRFamide (KGGFSFRF-NH2; listed as Rattus norvegicus) [26RFa(19-26), reference compound]
% Change baseline SL ([1]; 15 minutes): −0.4 ± 0.2% | % Change dep v (shortening rate) ([1]; 15 minutes): −5.3 ± 5.6% | % Change peak h (shortening amplitude) ([1]; 15 minutes): −7.7 ± 4.8% | % Change ret v (re-lengthening rate) ([1]; 15 minutes): −8.1 ± 5.0%

[A9]hRFRP-1: parent hRFRP-1 peptide where the 9th amino acid is replaced by an alanyl residue (MPHSFANLALRF-NH2; listed as Homo sapiens)
peak shortening (peak h) compared with unsubstituted hRFRP-1 ([1]; 10^−8M alanine analogs): significantly different | relaxation (ret v) compared with unsubstituted hRFRP-1 ([1]; 10^−8M alanine analogs): significantly different

VPHSAANLPLRFamide (VPHSAANLPLRF-NH2; listed as Rattus norvegicus) [rRFRP-1]
% Change baseline SL ([1]; 15 minutes): −0.3 ± 0.1% | % Change dep v (shortening rate) ([1]; 15 minutes): −22.1±6.0% | % Change peak h (shortening amplitude) ([1]; 15 minutes): −17.7±4.3% | % Change ret v (re-lengthening rate) ([1]; 15 minutes): −25.5±3.9%

CC(C)C[C@H](NC(=O)[C@H](Cc1ccccc1)NC(=O)[C@@H](NC(=O)[C@H](Cc1c[nH]cn1)NC(=O)[C@H](CC(=O)O)NC(=O)[C@@H](NC(=O)[C@H](CC(=O)O)NC(=O)[C@@H](N)[C@@H](C)O)C(C)C)C(C)C)C(=O)N[C@@H](CCCNC(=N)N)C(=O)N[C@@H](Cc1ccccc1)C(N)=O [DMS] (H-TDVDHVFLRF-NH2; N-terminus assumed)
time effects were sustained (D. melanogaster heart; 10^−6 M and 10^−7 M): 3 to 5 min | time to return to approximately basal contraction rate (D. melanogaster heart; 10^−6 M and 10^−7 M): ≤ 30 min | heart rate, % of the basal contraction rate (D. melanogaster heart; 10^−6 M, pupae): 25±11% | heart rate, % of the basal contraction rate (D. melanogaster heart; 10^−7 M, pupae): 25±7% | time to return to approximately basal contraction rate (D. melanogaster heart; 10^−8 M and 10^−9 M): about 5 minutes | heart rate, % of the basal contraction rate (D. melanogaster heart; 10^−10 M, pupae): 77±4% | time to maximal effect on heart rate (D. melanogaster heart; after microinjection, pupae): ≤ 1 min | pEC50 (D. melanogaster heart): 8.52 | responses on heart contractions in larvae and in adults (D. melanogaster heart; similar range of concentrations, larvae and adults): less robust but significant responses | time over which effects were observed (D. melanogaster heart; typical, 10^−8 M and 10^−9 M): 2 to 3 min | animals with cardiac arrest (Protophormia terraenovae; 10 μM, 1 μM, and 0.1 ηM, n=10 at each concentration): 100% | animals with cardiac arrest (Protophormia terraenovae; lower concentrations): ~50%

AFLRFamide (AFLRF-NH2)
effect on fly heart rate / contractility (in words) (D. melanogaster heart): capable of not only binding, but exerting an effect on cardiac contractility

LPLRFamide (LPLRF-NH2)
ability to bind and affect myocyte contractile function [1]: in a manner similar to the parent peptide hRFRP-1

CC(C)C[C@H](NC(=O)[C@H](Cc1ccccc1)NC(=O)[C@@H](NC(=O)[C@H](Cc1c[nH]cn1)NC(=O)[C@H](CC(=O)O)NC(=O)[C@@H](NC(=O)[C@H](Cc1ccc(C(=O)c2ccccc2)cc1)NC(=O)[C@@H](NC(=O)[C@@H](N)Cc1ccc(O)cc1)[C@@H](C)O)C(C)C)C(C)C)C(=O)N[C@@H](CCCNC(=N)N)C(=O)N[C@@H](Cc1ccccc1)C(N)=O [Y-[Bpa2]DMS] (H-YT[Bpa]VDHVFLRF-NH2; N-terminus assumed)
pEC50 (D. melanogaster heart): 9.89

TDVDHAFLRFamide (TDVDHAFLRF-NH2) [[A6]DMS]
effect on fly heart rate / contractility (in words) (D. melanogaster heart): increase heart rate

FANLPLRFamide (FANLPLRF-NH2)
ability to bind and affect myocyte contractile function [1]: in a manner similar to the parent peptide hRFRP-1

PHSFANLPLRFamide (PHSFANLPLRF-NH2)
character relative to hRFRP-1 on myocyte contractile function (agonist, antagonist, reverse agonist; in words) [1]: super-agonist

LAEELSSYSRRKGGFSFRFamide (LAEELSSYSRRKGGFSFRF-NH2) [26RFa(8-26), reference compound]
% Change baseline SL ([1]; 15 minutes): −0.04 ± 0.1% | % Change dep v (shortening rate) ([1]; 15 minutes): −6.0 ± 4.4% | % Change peak h (shortening amplitude) ([1]; 15 minutes): −4.3 ± 5.7% | % Change ret v (re-lengthening rate) ([1]; 15 minutes): −7.3 ± 6.3%

TDVDAVFLRFamide (TDVDAVFLRF-NH2) [[A5]DMS]
effect on fly heart rate / contractility (in words) (D. melanogaster heart): increase heart rate

MP(Bpa)SFANLPLRFamide (MP[Bpa]SFANLPLRF-NH2; N-terminus assumed; SMILES CSCC[C@H](N)C(=O)N1CCC[C@H]1C(=O)N[C@@H](Cc1ccc(C(=O)c2ccccc2)cc1)C(=O)N[C@@H](CO)C(=O)N[C@@H](Cc1ccccc1)C(=O)N[C@@H](C)C(=O)N[C@@H](CC(N)=O)C(=O)N[C@@H](CC(C)C)C(=O)N1CCC[C@H]1C(=O)N[C@@H](CC(C)C)C(=O)N[C@@H](CCCNC(=N)N)C(=O)N[C@@H](Cc1ccccc1)C(N)=O) [[Bpa3]hRFRP-1]
character relative to hRFRP-1 on myocyte contractile function (agonist, antagonist, reverse agonist; in words) [1]: increases cardiac function

YMPIISFANLPLRF-NH2 [Y-hRFRP-1]
character relative to hRFRP-1 on myocyte contractile function (agonist, antagonist, reverse agonist; in words) [1]: hRFRP-1 agonist

VDHVFLRFamide (VDHVFLRF-NH2)
effect on fly heart rate / contractility (in words) (D. melanogaster heart): activity similar to the parent DMS peptide

CN(C)CCCn1cc(C2=C(c3c[nH]c4ccccc34)C(=O)NC2=O)c2ccccc21 [bis-1, bisindolylmaleimide-1, reference compound]
effect of inhibitor on the influence of 10^−8 M hRFRP-1 on shortening amplitude, shortening and re-lengthening rates ([1]; 500 ηM inhibitor, 15 minutes): largely blocked
